The source made the active and inactive calls.
Key:
[1] = test system: Streptococcus sp. 'group A'; assay: Streptococcus pyogenes SK(-)GAS viability under kanamycin – luminescence, BacTiterGlo, confirmation, counter-screen for streptokinase expression inhibitor project, dose response (AID 1900); format: functional, organism-based
Streptococcus = assay: GAS UMAA2166 growth inhibition – luminescence, BacTiterGlo, counter-screen for streptokinase expression inhibitor project, dose response (AID 1915); format: functional, organism-based;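 note: potency for reduction of bacterial viability or growth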
[2] = Trypanosoma cruzi growth suppression in host cells – NIH3T3 host cells, beta-gal luminescence, confirmation (AID 2044); format: functional, cell-based;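 note: intracellular parasites grown in NIH/3T3 mouse fibroblasts as host cells; luminescent beta-galactosidase reporter signal from transgenic T. cruzi replicating inside host cells; inhibitors lower the luminescence signal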
[3] = NIH3T3 cell viability loss – ATP luminescence, mouse fibroblasts, counter-screen, dose response (AID 2010); format: functional, cell-based;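 note: cells exposed to compound for about 90 hours before reading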
H4 = assay: Luminescence Cell-Based Dose Response HTS to Identify Activators of 5'UTR Stem-Loop Driven Prion Protein mRNA Translation in H4 Neuroglioblastoma Cells. [Related pubchem assays: 1829 (Project Summary), 1814 (Primary HTS)]; format: functional; details: Homo sapiens
Cytochrome P450 2D6 = Cytochrome P450 2D6 (Homo sapiens, UniProt P10635);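 note: CYP2D6 member of a cytochrome P450 panel assay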
Cytochrome P450 2D6, sequence (P10635 whole entry): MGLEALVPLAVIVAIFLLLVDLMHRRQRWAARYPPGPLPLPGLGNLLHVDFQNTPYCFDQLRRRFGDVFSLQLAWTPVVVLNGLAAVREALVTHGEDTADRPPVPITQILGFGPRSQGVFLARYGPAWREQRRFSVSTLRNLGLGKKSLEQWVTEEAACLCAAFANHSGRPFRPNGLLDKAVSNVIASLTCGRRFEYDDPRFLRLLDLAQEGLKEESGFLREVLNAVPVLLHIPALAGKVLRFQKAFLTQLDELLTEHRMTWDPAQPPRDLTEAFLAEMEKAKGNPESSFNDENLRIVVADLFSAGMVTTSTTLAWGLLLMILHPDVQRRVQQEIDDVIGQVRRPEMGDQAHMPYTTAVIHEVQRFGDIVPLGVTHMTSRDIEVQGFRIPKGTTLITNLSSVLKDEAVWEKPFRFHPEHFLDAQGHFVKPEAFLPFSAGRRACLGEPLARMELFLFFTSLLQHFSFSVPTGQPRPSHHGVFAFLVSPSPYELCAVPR

Cytochrome P450 2C9 = Cytochrome P450 2C9 (Homo sapiens, UniProt P11712)
Cytochrome P450 2C9, sequence (P11712 whole entry): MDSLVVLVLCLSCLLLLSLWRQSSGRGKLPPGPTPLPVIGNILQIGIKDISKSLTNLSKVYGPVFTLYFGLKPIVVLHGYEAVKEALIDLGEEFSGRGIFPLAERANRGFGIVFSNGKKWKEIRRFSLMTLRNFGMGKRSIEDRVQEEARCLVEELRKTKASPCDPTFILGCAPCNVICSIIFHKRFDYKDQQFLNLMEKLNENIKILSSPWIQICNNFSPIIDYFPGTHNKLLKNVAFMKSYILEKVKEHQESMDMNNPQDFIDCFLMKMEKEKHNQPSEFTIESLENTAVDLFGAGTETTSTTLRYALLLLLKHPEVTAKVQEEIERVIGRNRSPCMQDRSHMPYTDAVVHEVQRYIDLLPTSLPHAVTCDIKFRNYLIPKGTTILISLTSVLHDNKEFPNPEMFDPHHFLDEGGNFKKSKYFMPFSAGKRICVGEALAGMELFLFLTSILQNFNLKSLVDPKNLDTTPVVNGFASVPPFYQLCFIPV

Cytochrome P450 3A4 = Cytochrome P450 3A4 (Homo sapiens, UniProt P08684);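 note: CYP3A4 tested as one member of a cytochrome P450 panel screen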
Cytochrome P450 3A4, sequence (P08684 whole entry): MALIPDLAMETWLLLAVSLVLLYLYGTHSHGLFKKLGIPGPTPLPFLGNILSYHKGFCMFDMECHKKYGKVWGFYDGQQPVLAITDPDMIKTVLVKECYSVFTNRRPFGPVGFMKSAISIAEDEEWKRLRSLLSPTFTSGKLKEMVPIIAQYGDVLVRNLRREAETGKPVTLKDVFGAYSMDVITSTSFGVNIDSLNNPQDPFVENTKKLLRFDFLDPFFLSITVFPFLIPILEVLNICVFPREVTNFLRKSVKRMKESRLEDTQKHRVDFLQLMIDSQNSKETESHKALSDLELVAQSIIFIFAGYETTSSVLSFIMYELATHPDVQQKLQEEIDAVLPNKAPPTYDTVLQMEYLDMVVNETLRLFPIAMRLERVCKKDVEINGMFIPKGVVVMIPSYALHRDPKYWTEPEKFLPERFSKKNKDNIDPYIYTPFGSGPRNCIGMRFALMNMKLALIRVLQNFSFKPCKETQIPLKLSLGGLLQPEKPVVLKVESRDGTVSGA

Cytochrome P450 2C19 = Cytochrome P450 2C19 (Homo sapiens, UniProt P33261); assay: Cytochrome panel assay with activity outcomes. Panel member name: p450-cyp2c19 Compounds with AC50 equal or less than 10 uM are considered active; format: functional; details: read-out: AC50
Cytochrome P450 2C19, sequence (P33261 whole entry): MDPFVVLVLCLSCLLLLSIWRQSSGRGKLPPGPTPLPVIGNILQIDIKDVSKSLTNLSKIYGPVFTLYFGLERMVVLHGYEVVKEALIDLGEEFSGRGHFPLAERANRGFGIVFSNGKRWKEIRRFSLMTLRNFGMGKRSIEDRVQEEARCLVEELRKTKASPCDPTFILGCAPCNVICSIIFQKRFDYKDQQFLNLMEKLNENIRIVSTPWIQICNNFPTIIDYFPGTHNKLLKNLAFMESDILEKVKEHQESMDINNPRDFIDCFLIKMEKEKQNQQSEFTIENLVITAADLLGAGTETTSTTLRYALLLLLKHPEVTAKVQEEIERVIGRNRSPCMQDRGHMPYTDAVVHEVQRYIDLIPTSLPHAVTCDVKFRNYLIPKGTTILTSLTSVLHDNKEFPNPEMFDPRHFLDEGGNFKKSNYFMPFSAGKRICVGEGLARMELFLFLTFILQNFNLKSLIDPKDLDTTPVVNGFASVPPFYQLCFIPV

[4] = biological target: T1, Heat shock factor protein 1 (Mus musculus, UniProt P38532); assay: decrease of HSF1-responsive luciferase luminescence – cell-based, NIH3T3, dose retest, confirmation (AID 2382); format: functional;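 note: NIH3T3 fibroblasts with HSF1-driven luciferase reporter stressed by proteasome inhibitor MG132; luminescence from HSF1-driven luciferase expression after 8 hours of MG132 stress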
T1 sequence (P38532 whole entry): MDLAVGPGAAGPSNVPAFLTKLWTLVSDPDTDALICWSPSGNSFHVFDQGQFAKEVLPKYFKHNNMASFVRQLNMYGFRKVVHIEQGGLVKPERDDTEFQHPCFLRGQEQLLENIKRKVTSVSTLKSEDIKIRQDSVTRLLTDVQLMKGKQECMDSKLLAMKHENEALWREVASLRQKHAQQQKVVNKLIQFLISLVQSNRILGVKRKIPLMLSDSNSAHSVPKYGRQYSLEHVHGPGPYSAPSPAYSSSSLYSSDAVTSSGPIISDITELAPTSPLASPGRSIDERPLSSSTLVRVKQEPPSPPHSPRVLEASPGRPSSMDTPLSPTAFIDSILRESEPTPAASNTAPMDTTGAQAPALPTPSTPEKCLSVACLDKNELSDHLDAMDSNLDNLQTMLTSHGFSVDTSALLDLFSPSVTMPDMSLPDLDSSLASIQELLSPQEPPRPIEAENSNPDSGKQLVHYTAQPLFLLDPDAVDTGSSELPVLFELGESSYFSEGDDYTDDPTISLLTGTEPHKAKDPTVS

Row | Structure (SMILES) | EC50 [2] | EC50 [3] | AC50 (Cytochrome P450 2C9) | further results
1 | CC(C(=O)NC1C(=O)N2C(C(=O)O)=C(CSc3nnnn3C)CSC12)n1cc(Br)cn1 (stereo unspecified) |  |  |  | EC50 [1]: 0.101 µM (active); EC50 (Streptococcus): 0.125 µM (active)
2 | COc1cccc(CN(C)CC2CCCN(CCc3ccccc3C)C2)c1 (stereo unspecified) | 0.184 µM (active) | 24.6 µM (active) |  | 
3 | O=C(NC1CCCCC1)C(=S)NC1CCCCC1 |  |  |  | EC50 (H4): 2.43 µM (active)
4 | COc1ccc(C2CC(c3ccc(C)cc3)Nc3nc(N)nn32)cc1 (stereo unspecified) | 7.21 µM (active) | > 60 µM (not active) |  | 
5 | CC(C(=O)Nc1ccc(F)c(F)c1F)N(C)CC(=O)Nc1ccccc1Br (stereo unspecified) | 1.71 µM (active) | > 60 µM (not active) |  | 
6 | CCNc1ncc2nc(-c3ccc(Cl)cc3)c(=O)n(Cc3cccs3)c2n1 |  |  | 31.6 µM (inconclusive) | AC50 (Cytochrome P450 2D6): 25.1 µM (inconclusive)
7 | CCN(CC)S(=O)(=O)c1ccc(C)c(NC(=O)Cn2cnc3cc([N+](=O)[O-])ccc3c2=O)c1 | 0.406 µM (active) | > 60 µM (not active) |  | 
8 | CNc1nc(-c2ccccc2CN(C)C)nc2ccccc12 |  |  |  | AC50 (Cytochrome P450 3A4): 25.1 µM (inconclusive)
9 | O=C(Nc1ccccc1)N1CCCC2(CCN(C(=O)c3ccco3)CC2)C1 |  |  | 25.1 µM (inconclusive) | AC50 (Cytochrome P450 3A4): 15.8 µM (inconclusive)
10 | COc1ccc(NC(=O)COC(=O)c2c3c(nc4ccccc24)CCCC3)cc1 |  |  |  | AC50 (Cytochrome P450 3A4): 0.891 µM (inconclusive)
11 | CC(C)(C)c1csc(NC2=NS(=O)(=O)c3ccccc32)n1 |  |  |  | EC50 (H4): > 120 µM (not active)
12 | Cc1ccc(C)c(N2CCN(C(=O)c3ccc(Cn4c(=O)[nH]c5ccccc5c4=O)cc3)CC2)c1 | 0.687 µM (active) | > 60 µM (not active) |  | 
13 | Cc1cc(C(=O)CCl)c(C)n1Cc1ccco1 | 3.3 µM (active) | 7.2 µM (active) |  | 
14 | CCC(NC(=O)c1ccc([N+](=O)[O-])cc1[N+](=O)[O-])c1ccccc1 (stereo unspecified) | 0.879 µM (active) | > 60 µM (not active) |  | 
15 | Cc1ccccc1-c1cc(N(C)Cc2ccco2)ncn1 |  |  |  | AC50 (Cytochrome P450 2D6): 39.8 µM (inconclusive)
16 | CC[C@H](c1ccccc1)c1cc(C(C)(C)C)cc(C(C)(C)C)c1O |  |  | 7.94 µM (inconclusive) | AC50 (Cytochrome P450 3A4): 5.01 µM (inconclusive)
17 | CCCCN1C(=O)NC(=O)/C(=C(/CC)NCCCN(C)C)C1=O | 0.236 µM (active) | > 60 µM (not active) |  | 
18 | Cn1cccc1C(=O)N1CCC[C@@]2(CCN(Cc3nccs3)C2)C1 |  |  | 31.6 µM (inconclusive) | AC50 (Cytochrome P450 2D6): 31.6 µM (inconclusive)
19 | COc1cccc(Cn2c(=O)c(C)nc3cnc(N4CCNCC4)nc32)c1 |  |  |  | AC50 (Cytochrome P450 2C19): 39.8 µM (inconclusive)
20 | CCN(CC)CCN(C(=O)C1=COCCO1)c1nc2ccc(C)cc2s1 | 0.384 µM (active) | > 60 µM (not active) |  | 
21 | COc1ccc(-c2nnn(CC(=O)NCCc3c[nH]c4ccccc34)n2)cc1OC |  |  |  | AC50 (Cytochrome P450 2D6): 0.0126 µM (inconclusive)
22 | COc1ccc(C(=O)Nc2ccc(S(=O)(=O)N3CCOCC3)cc2)cc1OC |  |  | 28.2 µM (inconclusive) | AC50 (Cytochrome P450 2C19): 8.91 µM (inconclusive); AC50 (Cytochrome P450 2D6): 0.00794 µM (inconclusive)
23 | CC(=O)N(NC(=O)c1ccccc1Cl)C1CC(=O)N(c2ccc(C)cc2)C1=O (stereo unspecified) |  |  | 14.1 µM (inconclusive) | AC50 (Cytochrome P450 2C19): 1 µM (inconclusive); AC50 (Cytochrome P450 3A4): 20 µM (inconclusive)
24 | COc1ccc(C2(C(=O)N3CCOCC3)CCCC2)cc1 |  |  |  | AC50 (Cytochrome P450 3A4): 12.6 µM (inconclusive)
25 | CCCCN(Cc1ccccc1)C(=O)c1cnc2n(c1=O)CCS2 |  |  | 8.91 µM (inconclusive) | AC50 (Cytochrome P450 2D6): 31.6 µM (inconclusive)
26 | N=C1/C(=N/Nc2cccc(Cl)c2)C(=O)NN1c1ccccc1 |  |  | 1.26 µM (inconclusive) | 
27 | COc1cc(/C=N/NC(=O)c2nc3ccccn3c2C)cc(OC)c1O | > 60 µM (not active) | > 60 µM (not active) |  | 
28 | COc1ccc(/C=N/NC(N)=S)cc1OC(=O)c1cccc2ccccc12 |  |  | 6.31 µM (inconclusive) | 
29 | Cc1cc(N/N=C/c2ccc(Cl)cc2)nc(NCc2ccccc2)n1 | 1.82 µM (active) | 11.4 µM (active) |  | 
30 | CCCCOc1ccc(/N=C/c2ccc[nH]2)cc1 |  |  |  | EC50 [4]: 33 µM (active)
